# Measured values reported in patent publication US20170035894A1, “DRUG DELIVERY CONJUGATES FOR TREATING RESISTANT CANCER AND FOR USE IN COMBINATION THERAPY” (ENDOCYTE, INC., priority 2014, published 2017).
# Where a name gives a salt, the structure may show the parent alone.
# Columns and labels:
# KB tumors = experiment: Inhibition of tumor growth, s.c. KB tumors; type: in vivo, nu/nu mice; details: for CR (%) / Cures (%) / PR (%): TIW, 2 weeks
# Method: METHOD. Inhibition of Tumor Growth in Mice. Four to seven week-old mice (Balb/c or nu/nu strains) were purchased from Harlan Sprague Dawley, Inc. (Indianapolis, Ind.). Normal rodent chow contains a high concentration of folic acid (6 mg/kg chow); accordingly, test animals were maintained on a folate-free diet (Harlan diet #TD00434) for about 1 week before tumor implantation to achieve serum folate concentrations close to the range of normal human serum, and during the Method. For tumor cell inoculation, 1×10^6 M109 cells (a syngeneic lung carcinoma) in Balb/c strain, or 1×10^6 KB cells in nu/nu strain, in 100 μL were injected in the subcutis of the dorsal medial area (right axilla). Tumors were measured in two perpendicular directions every 2-3 days using a caliper, and their volumes were calculated as 0.5×L×W^2, where L=measurement of longest axis in mm and W=measurement of axis perpendicular to L in mm.
# Dosing solutions were prepared fresh each day in PBS and administered through the lateral tail vein of the mice.
# Tumor implantation. KB tumor cells were grown in folate-deficient RPMI 1640 with 5% FBS at 37° C. in a 5% CO2 humidified atmosphere. KB (1×10^6 cells per animal) tumor cells were inoculated subcutaneously […] post start of the folate deficient diet. Mice were dosed after the tumors reached between 100-150 mm3.
# Preparation of dosing drug solutions. Dosing solutions were prepared when dosing began by weighing appropriate amounts of each compound, reconstituting in PBS, pH 7.4, sterile filtering the drug solution through a 0.22 µm PVDF syringe filter, and freezing aliquots for each day of dosing at −20° C.
# (§1) Evaluation. Tumor size was monitored and body weight measured 3 times/week. Attention was given to gross animal morphology and behavior. Euthanasia was performed if the mice lost >20% of weight or when the tumors reached a size of 1500 mm3. Euthanasia was also performed at the researcher's discretion if mice lost a lot of weight in a short duration or when mice were approaching moribund conditions. Blood samples were collected by cardiac puncture from all viable animals from selected cohorts. Heart, lungs, liver, spleen, kidney, intestines, bone, brain and muscle were obtained immediately after euthanasia. The tissues were removed and stored in 10% neutral-buffered formalin.
# For example, a 50% decrease in tumor volume from the initial measurement represents a partial response.
# For example, a decrease in tumor volume where the measurements in two perpendicular directions are each about 2 mm or less represents a complete response.
# [1] = Toxicity as measured by weight loss / gross animal toxicity in tumor-bearing mice; details: for Toxicity Avg. Weight Loss / Toxicity Deaths (%): TIW, 2 weeks
# Method: METHOD. Toxicity as Measured by Weight Loss. The percentage weight change of the test animals was determined on selected days post-tumor inoculation (PTI), and during dosing. The results were graphed.
# as §1
# cells in culture = experiment: Cytotoxicity of unconjugated drugs to cells in culture; type: cell-based; details: unconjugated drug; read-out: typical IC50, cytotoxic to cells in culture
# LU1147 NSCLC tumors = experiment: Huprime NSCLC PDX tumor model; type: in vivo, Balb/c nu/nu mice; details: Docetaxel 15 mg/kg (one dose)
# Method: (§2) Female Balb/c nu/nu mice were fed ad libitum with folate-deficient chow (Harlan diet #TD01013) for the duration of the experiment. Primary human NSCLC models LU1147 or LU2505 fragments (2-4 mm in diameter) were inoculated subcutaneously at the right flank of each mouse. Mice were randomized into experimental groups of 7 mice and test articles were injected through the lateral tail vein under sterile conditions in a volume of 200 μL of phosphate-buffered saline (PBS). These studies were performed at Crown Bioscience (Beijing) Inc., Ground Floor, Light Muller Building, Changping Sector of Zhongguancun Scientific Park, No. 21 Huoju Road, Changping District, Beijing, P.R. China.
# (§3) Growth of each s.c. tumor was followed by measuring the tumor two times per week until a volume of 1200 mm^3 was reached. Tumors were measured in two perpendicular directions using Vernier calipers, and their volumes were calculated as 0.5×L×W^2, where L=measurement of longest axis in mm and W=measurement of axis perpendicular to L in mm.
# LU2505 NSCLC tumors = experiment: Huprime NSCLC PDX tumor model; type: in vivo, Balb/c nu/nu mice; details: Docetaxel 15 mg/kg (one dose)
# Method: as §2, §3
# ST040 tumors = experiment: Endometrial PDX tumor model; type: in vivo, Balb/c nu/nu mice; details: Paclitaxel 15 mg/kg once a week for two weeks
# Method: (§4) Female Balb/c nu/nu mice were fed ad libitum with folate-deficient chow (Harlan diet #TD01013) for the duration of the experiment. Primary human Endometrial model ST040, TNBC models 5T502 and ST738 and Ovarian model ST024 fragments (2-4 mm in diameter) were inoculated subcutaneously at the right flank of each mouse. Mice were randomized into 6 experimental groups of 5 or 3 mice each and test articles were injected through the lateral tail vein under sterile conditions in a volume of 200 μL of phosphate-buffered saline (PBS).
# as §3
# ST024 tumors = experiment: Ovarian PDX tumor model; type: in vivo, Balb/c nu/nu mice; details: Paclitaxel 15 mg/kg once a week for two weeks
# Method: as §4, §3
# ST502 tumors = experiment: TNBC PDX tumor model; type: in vivo, Balb/c nu/nu mice; details: Eribulin mesylate 1 mg/kg once a week for two weeks
# Method: as §4, §3
# ST738 tumors = experiment: TNBC PDX tumor model; type: in vivo, Balb/c nu/nu mice; details: Eribulin mesylate 1 mg/kg once a week for two weeks
# Method: as §4, §3
# [2] = system: KB-CR2000 (cisplatin resistant) tumors; experiment: Cisplatin-resistant KB-CR2000 tumor model; type: in vivo, mice; details: cisplatin 3 mg/kg twice per week, 2 weeks
# From the text: METHOD. Human cisplatin-resistant cell line. […] In addition, regrowth of the tumor was only observed in 1/5 test animals.
# [3] = Cytotoxicity of unconjugated drugs to cells in culture; type: cell-based; details: cells in culture; unconjugated drug; read-out: typical IC50, cytotoxic to cells in culture
# [4] = Carboplatin 30 mg/kg BIW×2 combined with paclitaxel 10 mg/kg BIW×2
# [5] = KB tumors, 0.1 μmol/kg (4 doses)
# [6] = KB tumors, 0.2 μmol/kg (3 doses)
# [7] = KB tumors, 0.5 μmol/kg (1 dose)
# [8] = 1.0 μmol/kg (2 doses, only 2 doses due to toxicity)
# [9] = KB tumors, 1.0 μmol/kg (2 doses)
compound,measurement,setting,value
"N.N.O=C([O-])C1(C(=O)[O-])CCC1.[Pt+2] [carboplatin, reference compound]",CR's,KB tumors; [4],80%
same,cures,KB tumors; [4],20%
same,toxicity,"[1]; KB tumors, carboplatin/paclitaxel study, carboplatin administered alone",Mild toxicity
same,toxicity,"[1]; P-1635 KB tumors, carboplatin alone 50 mg/kg TIW",Mild toxicity
"CCCC(=O)OCN(C(=O)[C@@H](NC(=O)[C@H]1CCCCN1C)[C@@H](C)CC)[C@H](C[C@@H](OC(C)=O)c1nc(C(=O)N[C@@H](Cc2ccc(O)cc2)C[C@H](C)C(=O)O)cs1)C(C)C [Tubulysin B, tubulysin B, reference compound]",IC50,cells in culture,~1 nM
same,CR (%),KB tumors; 0.1 μmol/kg (4 doses),0%
same,Cures (%),KB tumors; 0.1 μmol/kg (4 doses),0%
same,PR (%),KB tumors; 0.1 μmol/kg (4 doses),0%
same,CR (%),KB tumors; 0.2 μmol/kg (3 doses),0%
same,Cures (%),KB tumors; 0.2 μmol/kg (3 doses),0%
same,PR (%),KB tumors; 0.2 μmol/kg (3 doses),0%
same,CR (%),KB tumors; 0.5 μmol/kg (1 dose),0%
same,Cures (%),KB tumors; 0.5 μmol/kg (1 dose),0%
same,PR (%),KB tumors; 0.5 μmol/kg (1 dose),0%
same,Toxicity Avg. Weight Loss,[1]; [5],>20%
same,Toxicity Deaths (%),[1]; [5],100%
same,Toxicity Avg. Weight Loss,[1]; [6],>18%
same,Toxicity Deaths (%),[1]; [6],100%
same,Toxicity Avg. Weight Loss,[1]; [7],>15%
same,Toxicity Deaths (%),[1]; [7],100%
CC(=O)O[C@@]12CO[C@@H]1C[C@H](O)[C@@]1(C)C(=O)[C@H](O)C3=C(C)[C@@H](OC(=O)[C@H](O)[C@@H](NC(=O)OC(C)(C)C)c4ccccc4)C[C@@](O)([C@@H](OC(=O)c4ccccc4)[C@H]21)C3(C)C [docetaxel],animals exhibiting stable disease,LU1147 NSCLC tumors,2 animals
same,CR's,LU2505 NSCLC tumors,2
same,PR's,LU2505 NSCLC tumors,2
same,cures,LU2505 NSCLC tumors,2
same,toxicity,"[1]; KB tumors, docetaxel alone 7 mg/kg BIW×3",Mild toxicity
"COc1cccc2c1C(=O)c1c(O)c3c(c(O)c1C2=O)C[C@@](O)(C(=O)CO)C[C@@H]3O[C@H]1C[C@H](N)[C@H](O)[C@H](C)O1 [doxorubicin, reference compound]",toxicity,"[1]; KB-DR150 tumors, doxorubicin alone, DOXIL 5 mg/kg BIW×2",Mild toxicity
"CC(=O)O[C@H]1C(=O)[C@@]2(C)[C@H]([C@H](OC(=O)c3ccccc3)[C@]3(O)C[C@H](OC(=O)[C@H](O)[C@@H](NC(=O)c4ccccc4)c4ccccc4)C(C)=C1C3(C)C)[C@]1(OC(C)=O)CO[C@@H]1C[C@@H]2O [Paclitaxel, paclitaxel, reference compound]",animals exhibiting stable disease,ST040 tumors,zero
same,anti-tumor activity,ST024 tumors,no anti-tumor activity
"C=C1C[C@@H]2CC[C@@]34C[C@H]5O[C@H]6[C@@H](O3)[C@H]3O[C@H](CC[C@@H]3O[C@H]6[C@H]5O4)CC(=O)C[C@@H]3[C@@H](OC)[C@@H](C[C@H](O)CN)O[C@H]3C[C@H]3O[C@@H](CC[C@@H]1O2)C[C@@H](C)C3=C [Eribulin mesylate, eribulin mesylate, reference compound]",animal exhibiting PR,ST502 tumors,1 animal
same,animal exhibiting stable disease,ST502 tumors,1 animal
same,PR's,ST738 tumors,2
same,animals exhibiting stable disease,ST738 tumors,5 animals
"N.N.[Cl][Pt][Cl] [cisplatin, reference compound]",partial response (PR),[2],did not produce even a single partial response
"CCCC(=O)OCN(C(=O)[C@@H](NC(=O)[C@H]1CCCCN1C)C(C)CC)[C@H](C[C@@H](OC(C)=O)c1nc(C(=O)N[C@@H](Cc2ccc(O)cc2)C[C@H](C)C(=O)NN)cs1)C(C)C (stereo partly shown) [TubB-H, reference compound]",IC50,[3],~1 nM
same,CR (%),KB tumors; 0.5 μmol/kg,0%
same,Cures (%),KB tumors; 0.5 μmol/kg,0%
same,PR (%),KB tumors; 0.5 μmol/kg,0%
same,CR (%),KB tumors; 0.75 μmol/kg,0%
same,Cures (%),KB tumors; 0.75 μmol/kg,0%
same,PR (%),KB tumors; 0.75 μmol/kg,0%
same,CR (%),KB tumors; [8],0%
same,Cures (%),KB tumors; [8],0%
same,PR (%),KB tumors; [8],0%
same,Toxicity Avg. Weight Loss,"[1]; KB tumors, 0.5 μmol/kg",<5.5%
same,Toxicity Deaths (%),"[1]; KB tumors, 0.5 μmol/kg",0%
same,Toxicity Avg. Weight Loss,"[1]; KB tumors, 0.75 μmol/kg",>10%
same,Toxicity Deaths (%),"[1]; KB tumors, 0.75 μmol/kg",20%
same,Toxicity Avg. Weight Loss,[1]; [9],>15%
same,Toxicity Deaths (%),[1]; [9],20%
